{"source": "patent US7754064B2", "about": "“Methods and apparatus for the on-site production of hydrogen peroxide” (Eltron Research & Development, priority 2006, dated 2010)", "key": {"Vibrio hollisae": {"tested_on": "Vibrio hollisae", "settings": "20° C., 3-50 ppm H2O2, 6-30 minutes exposure", "experimental": "A stock culture of Vibrio hollisae was diluted to 1×10-5 with micropore filtered seawater (FSW). The dilution was calculated to yield a sample density of roughly 350 CFUs/mL after 48 hr of grow up. The experimental matrix consisted of peroxide concentration versus exposure time. The bacteria were exposed to the peroxide in liquid cultures, and then the treated bacteria were plated onto agar plates and colony counts done at 24 and 48 hrs. Data were analyzed for LD-100 conditions for maximal effect at lowest concentration and shortest exposure time. Six tubes of 5 mL bacterial culture were prepared. […] A control sample containing NO peroxide was also prepared. At each treatment exposure time point (6, 10, 15, and 30 minutes respectively), 1 mL was removed from each tube and filtered through a mixed cellulose ester filter (0.45 micron pore size, 47 mm dia., Fisher #09-719-1A). Each filter was then placed onto a TCBS (thiosulfate, citrate, bile, and sucrose) media plate and incubated for 48 hr at room temperature (23° C.). Standard colony counts were then made for the entire filter for each treatment condition. The procedure was repeated in triplicate. For each repetition, three separate samples (batches) were prepared and two duplicate trials were run for each batch sample. The results were statistically analyzed using ANOVA and paired student t-test paired comparisons. […]"}, "Perkinsus marinus": {"tested_on": "Perkinsus marinus", "settings": "treatment time 30 minutes, four trials", "experimental": "The final series of trials explored the effectiveness of the treatment against the protozoan Perkinsus marinus which is pathogenic to shellfish and causes the disease Dermo. Essentially the same protocol used for QPX was adapted to Perkinsus and represented a novel method of determining Perkinsus viability after disinfection treatments. Here four duplicate trials were run, again with a treatment time of 30 minutes."}, "Pseudomonas cepacia": {"tested_on": "Pseudomonas cepacia", "settings": "alkaline solutions of 1000 ppm H2O2, filtration units"}, "biofouling": {"tested_on": "biofouling", "settings": "cited from earlier work"}}, "data": [{"smiles": "OO", "note": "[hydrogen peroxide]", "values": [{"measurement": "time*dosage factor for plankton kill", "setting": "mixed plankton; mixed plankton, 4, 10 and 20° C., from LD-50 and LD-100, averaged over four concentrations", "value": "1000 to 3000", "unit": "ppm min."}, {"measurement": "LD50's as percent of 100% mortality times", "setting": "mixed plankton; mixed zooplankton in natural seawater with added H2O2", "value": "40-50%"}, {"measurement": "time dosage values sufficient to achieve 2 log kills (99%)", "setting": "Vibrio hollisae", "value": "1000 to 2000", "unit": "ppm min."}, {"measurement": "average viable cell count", "setting": "QPX (Quahog Parasite-X); 10 ppm H2O2, 30 min., 20° C., average of two trials", "value": 430, "unit": "cells/L"}, {"measurement": "resistance to the treatment compared with general plankton and Vibrio ssp.", "setting": "QPX (Quahog Parasite-X); 30 minutes treatment, 0-150 ppm", "value": "slightly more resistant"}, {"measurement": "time*dosage values sufficient to reduce occurrence of Perkinsus to hinder spread of disease", "setting": "Perkinsus marinus", "value": "1500 to 5000", "unit": "ppm"}, {"measurement": "Pseudomonas cepacia eliminated", "setting": "Pseudomonas cepacia", "value": "more than 100%"}, {"measurement": "log kill of Pseudomonas cepacia", "setting": "Pseudomonas cepacia", "value": 7, "unit": "log"}, {"measurement": "concentration typically required for sufficient effectiveness in sterilization", "setting": "biofouling; industrial disinfection (powerplant biofouling, sewage treatment)", "value": "50-200 ppm"}, {"measurement": "concentration that can be effective towards fouling control", "setting": "biofouling; recent data", "value": 2, "unit": "ppm"}]}]}
